This passage reports IC50 results from BindingDB's records for PubMed 33228976 (Massachusetts College of Pharmacy and Health Sciences …, 2021).

Each structure is given as a SMILES string. pIC50: −log10 of the molar value.

What is called pIC50 is the IC50 on a negative log10 scale, so that one unit is a factor of ten.

For this experiment, the target named is GTPase KRas (Homo sapiens, UniProt P01116). Put plainly: Antiproliferative activity against human COLO 320DM cells harboring wild type KRAS assessed as reduction in cell viability incubated for 24 hrs in presence of MVA.
GTPase KRas, sequence (P01116 whole entry): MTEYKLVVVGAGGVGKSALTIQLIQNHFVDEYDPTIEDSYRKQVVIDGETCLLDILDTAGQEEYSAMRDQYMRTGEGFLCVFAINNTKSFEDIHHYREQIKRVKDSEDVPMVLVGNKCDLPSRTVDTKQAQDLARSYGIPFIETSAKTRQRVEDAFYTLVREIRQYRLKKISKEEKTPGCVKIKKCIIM

Regarding `CCCC[C@@H](C)C=C(C)C=C(C)C(=O)NC1=C[C@@](O)(C=CC=CC=CC(=O)NC2C(=O)CCC2=O)[C@@H]2O[C@@H]2C1=O` [(R)-2,4,6-Trimethyl-deca-2,4-dienoic acid {(1S,5S,6R)-5-hydroxy-5-[(1E,3E,5E)-6-(2-hydroxy-5-oxo-cyclopent-1-enylcarbamoyl)-hexa-1,3,5-trienyl]-2-oxo-7-oxa-bicyclo[4.1.0]hept-3-en-3-yl}-amide], the pIC50 was 5.45.
